Patent US8778966B2, “Quinolinone derivatives as PARP and tank inhibitors” (Janssen Pharmaceutica, NV, priority 2007, dated 2014)

Tests used:
PC3 cells = assay: EB1 Comet (microtubule disruption) assay; format: cell-based, human; settings: 1 hour treatment
Procedure: The Eb1 Comet assay relies on the detection of the Eb1 protein at the plus end of polymerizing microtubules (Mimori-Kiyosue, 2000) using indirect immunofluorescence. Disruption of microtubule dynamics through de-polymerization or stabilization results in a de-localization of Eb1 from the growing microtubule ends and this is visualized by the disappearance of Eb1 containing cytoplasmic foci.
Briefly, human prostate cancer PC3 cells obtained from the American Type Culture Collection were grown in 96-well plates (Greiner, cat. no. 655090) in HAM's F12 medium as recommended by the provider (ATCC). The cells were treated for 1 hour at 37° C. with compounds dissolved in DMSO (0.6% final DMSO concentration). The culture medium was then removed by aspiration and the cells were fixed by adding cold methanol (−20 C). After a 15 min. incubation at −20 C, the cells were washed twice with DPBS (Gibco) containing 0.5% Triton X-100. Mouse Eb1 antibody (BD Transduction Laboratories, cat. no. 610534) was added to the cells (1/250 dilution in DPBS containing 1% BSA) and incubated overnight at room temperature. The antibody was subsequently removed and the cells washed twice with DPBS, 0.5% Triton X-100. Secondary goat anti-mouse antibody conjugated to Alexa 488 fluorescent dye (Molecular Probes) was added at a 1/500 dilution in DPBS, 1% BSA and incubated for 1 hour at 37 C. The cells were washed twice with DPBS, 0.5% Triton X-100 and then DPBS containing 0.5% Triton X-100 and 1/5000 Hoechst 33342 (Molecular Probes) was added. Microscopy based Eb1 foci visualization was carried out using an IN Cell Analyser 1000 (Amersham Biosciences) using a 20× objective. Compound dependent microtubule disruption was visually determined by the disappearance in Eb1 foci. The lowest active concentration (LAC) was determined as the concentration where Eb1 foci were absent in at least 50% of the treated cells.

PC-3 cells = assay: Antiproliferative activity, Alamar Blue assay, PC-3 cells; format: cell-based, human; settings: for IC50: Homo sapiens, PC-3, PC3 cells, read-out: PC3 antiproliferative activity pIC50 (converted)
Procedure: Human prostate cancer PC-3 cells obtained from the ATCC were cultured in HAM′S F12 medium supplemented with 1 mM Sodium Pyruvate, 1.5 g/L Sodium Bicarbonate, 50 μg/ml gentamicin, non-essential amino acids and 10% fetal calf serum.
(§1) Resazurin was purchased from Aldrich (Prod. No. 199303). Potassium ferrocyanide, potassium ferricyanide, KH2PO4 and K2HPO4 were purchased from Sigma (Prod. Nos. P9387, P8131, P5655 and P8281, respectively).
(§2) Potassium Phosphate Buffer 0.1 M (PPB) was made as follows: 2.72 gram KH2PO4 and 13.86 gram K2HPO4 were dissolved in 500 ml milli-Q H2O, the pH was adjusted to pH 7.4 and the volume was brought to 1 litre with milli-Q H2O; the buffer was filter sterilised and stored at room temperature. Resazurin stock solution (PPB-A) was prepared fresh by dissolving 45 mg resazurin in 15 ml PBS. 30 mM potassium ferricyanide (PPB-B) was prepared by dissolving 0.987 gram potassium ferricyanide in 100 ml PPB. 30 mM potassium ferrocyanide (PPB-C) was prepared by dissolving 1.266 gram potassium ferrocyanide in 100 ml PPB.
(§3) Mixture of PPB-A, PPB-B and PPB-C was prepared by mixing equal volumes of the respective solutions. Resazurin work solution (herein termed “Alamar Blue” solution) was prepared by diluting said mixture 20×(vol/vol) in PPB and filter sterilising; the Alamar Blue solution could be kept at 4° C. for a maximum of 2 weeks.
(§4) For experiments in 384 wells plates the cells were seeded at a density of 4.5×10^3 cells/ml in Falcon 384-well culture plates (Life Technologies, Merelbeke, Belgium), black with clear bottom, in 45 μl culture medium. Cells were allowed to adhere to plastic for 24 hr. The tested compound was pre-diluted (1/50 in culture medium) and 5 μl pre-diluted compound was added to the wells. Following 4-day incubation, 10 μl of the Alamar Blue solution was added to each well and the cells were further incubated for 4 hrs (HCT116) or 24 hrs (PC-3) at 37° C. The fluorescence intensity was measured for each well on a Fluorescence plate reader (Fluorskan, Labsystems, 540 nm excitation and 590 nm emission)
(§5) The antiproliferative activity was calculated as percentage of remaining viable cells in treated versus control (untreated cells) conditions. Within an experiment, the result for each experimental condition is the mean of 3 replicate wells. When appropriate, the experiments were repeated to establish full concentration-response curves. When appropriate, IC50-values (concentration of the drug, needed to reduce cell growth to 50% of the control) were computed using probit analysis for graded data (Finney, D. J., Probit Analyses, 2nd Ed. Chapter 10, Graded Responses, Cambridge University Press, Cambridge 1962). Herein the effects of test compounds are expressed as pIC50 (the negative log value of the IC50-value) (see Table 2).

HCT116 cells = assay: Antiproliferative activity, Alamar Blue assay, HCT116 cells; format: cell-based, human; design: key to HCT116 antiproliferative activity pIC50: pIC50 = -log IC50 (IC50: conc. reducing growth to 50% of control); settings: for IC50: Homo sapiens, HCT-116, HCT116 cells, read-out: HCT116 antiproliferative activity pIC50 (converted)
Procedure: Human colon carcinoma HCT116 cells obtained from the ATCC were cultured in McCoy's 5 A medium supplemented with 2 mM L-Glutamine, 50 μg/ml gentamicin and 10% heat inactivated fetal calf serum.
as §1, §2, §3, §4, §5

Human PARP-1 enzyme = target: T1, Human PARP-1 enzyme (Homo sapiens, UniProt P09874); assay: In vitro Scintillation Proximity Assay (SPA) for PARP-1 inhibitory activity; format: biochemical; settings: read-out: in vitro SPA assay PARP-1 pIC50 (converted)
T1 construct: purchased Trevigen
T1 sequence (P09874 whole entry): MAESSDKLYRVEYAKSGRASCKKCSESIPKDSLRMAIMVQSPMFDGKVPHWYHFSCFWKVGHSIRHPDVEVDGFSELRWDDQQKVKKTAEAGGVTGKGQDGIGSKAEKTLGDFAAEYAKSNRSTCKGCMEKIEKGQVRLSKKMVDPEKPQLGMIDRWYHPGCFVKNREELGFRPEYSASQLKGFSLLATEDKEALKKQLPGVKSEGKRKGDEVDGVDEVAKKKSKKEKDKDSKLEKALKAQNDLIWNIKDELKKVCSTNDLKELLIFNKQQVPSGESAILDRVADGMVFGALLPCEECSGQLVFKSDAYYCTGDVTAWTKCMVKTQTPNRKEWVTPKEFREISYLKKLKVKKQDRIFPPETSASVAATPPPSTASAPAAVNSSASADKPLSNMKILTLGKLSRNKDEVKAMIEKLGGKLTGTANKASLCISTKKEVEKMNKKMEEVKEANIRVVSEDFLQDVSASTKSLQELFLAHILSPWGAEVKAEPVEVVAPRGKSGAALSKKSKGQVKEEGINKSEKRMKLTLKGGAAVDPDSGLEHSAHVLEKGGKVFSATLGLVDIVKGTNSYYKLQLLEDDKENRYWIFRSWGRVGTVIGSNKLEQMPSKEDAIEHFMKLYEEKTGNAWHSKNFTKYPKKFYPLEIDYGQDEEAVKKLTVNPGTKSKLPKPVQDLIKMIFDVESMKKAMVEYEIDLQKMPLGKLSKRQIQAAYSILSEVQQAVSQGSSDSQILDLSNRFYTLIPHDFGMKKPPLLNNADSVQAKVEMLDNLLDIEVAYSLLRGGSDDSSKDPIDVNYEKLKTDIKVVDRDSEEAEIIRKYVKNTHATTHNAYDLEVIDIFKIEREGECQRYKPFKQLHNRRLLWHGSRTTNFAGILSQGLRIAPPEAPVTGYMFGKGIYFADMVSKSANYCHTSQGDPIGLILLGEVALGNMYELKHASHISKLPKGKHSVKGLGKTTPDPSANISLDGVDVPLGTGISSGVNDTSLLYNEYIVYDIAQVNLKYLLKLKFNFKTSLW
Procedure: Compounds of the present invention were tested in an in vitro assay based on SPA technology (proprietary to GE healthcare).
In principle, the assay relies upon the well established SPA technology for the detection of poly(ADP-ribosyl)ation of biotinylated target proteins, i.e histones. This ribosylation is induced using nicked DNA activated PARP-1 enzyme and [^3H]-nicotinamide adenine dinucleotide ([^3H]-NAD^+) as ADP-ribosyl donor.
Histones (type II-A, supplier: Sigma) were biotinylated using the biotinylation kit of Amersham and stored aliquoted at −20° C. A stock solution of 100 mg/ml SPA poly(vinyl toluene) (PVT) beads (supplier: Amersham) was made in PBS. A stock solution of 61.6 nM [^3H]-NAD^+ was made by adding [^3H]-NAD^+ (0.1 mCi/ml, supplier: Perkin Elmer) to incubation buffer (50 mM Tris/HCl, pH 8; 0.2 mM DTT; 4 mM MgCl2). A solution of 4 mM NAD^+ (supplier: Sigma) was made. Human PARP-1 enzyme was obtained from Trevigen. Biotinylated histones and PVT-SPA beads were mixed and pre-incubated for 30 min. at room temperature. PARP-1 enzyme (concentration was lot dependent) was mixed with the nicked DNA and the mixture was pre-incubated for 30 min. at 4° C. Equal parts of this histones/PVT-SPA beads solution and PARP-1 enzyme/DNA solution were mixed and 75 μl of this mixture together with 1 μl of compound in DMSO and 25 μl of [^3H]-NAD^+ was added per well into a 96-well microtiterplate. The final concentrations in the incubation mixture were 2 μg/ml for the biotinylated histones, 2 mg/ml for the PVT-SPA beads, 0.25 μg/ml for the nicked DNA and between 0.1-0.2 μg/ml for the PARP-1 enzyme. After incubation of the mixture for 20 min. at room temperature, the reaction was terminated by adding 100 μl of 4 mM NAD^+ in water (final concentration 2 mM) and plates were mixed. The beads were sedimented by centrifugation (10 min, 800 rpm). and plates transferred to a TopCountNXT™ (Packard) for scintillation counting, values were expressed as counts per minute (cpm). For each experiment, controls (containing PARP-1 enzyme and DMSO without compound), a blank incubation (containing DMSO but no PARP-1 enzyme, no DNA or compound) and samples (containing PARP-1 enzyme, DNA and compound dissolved in DMSO) were run in parallel. All compounds tested were dissolved and eventually further diluted in DMSO. A dose-response curve was made wherein the compounds were tested at concentrations between 10^−5M and 3×10^−9M. In each test, the blank value was subtracted from both the control and the sample values. The control sample represented maximal PARP-1 enzyme activity. For each sample, the amount of cpm was expressed as a percentage of the mean cpm value of the controls. When appropriate, IC50-values (concentration of the drug, needed to reduce the PARP-1 enzyme activity to 50% of the control) were computed using linear interpolation between the experimental points just above and below the 50% level. Herein the effects of test compounds are expressed as pIC50 (the negative log value of the IC50-value). As a reference compound, 4-amino-1,8-naphthalimide was included to validate the SPA assay.

TANK-2 enzyme = target: T2, TANK-2 enzyme (Homo sapiens, UniProt Q9H2K2); assay: In vitro Scintillation Proximity Assay (SPA) for TANK-2 inhibitory activity; format: biochemical; settings: read-out: in vitro SPA assay TANK-2 pIC50 (converted)
T2 construct: made in house
T2 sequence (Q9H2K2 1-1166): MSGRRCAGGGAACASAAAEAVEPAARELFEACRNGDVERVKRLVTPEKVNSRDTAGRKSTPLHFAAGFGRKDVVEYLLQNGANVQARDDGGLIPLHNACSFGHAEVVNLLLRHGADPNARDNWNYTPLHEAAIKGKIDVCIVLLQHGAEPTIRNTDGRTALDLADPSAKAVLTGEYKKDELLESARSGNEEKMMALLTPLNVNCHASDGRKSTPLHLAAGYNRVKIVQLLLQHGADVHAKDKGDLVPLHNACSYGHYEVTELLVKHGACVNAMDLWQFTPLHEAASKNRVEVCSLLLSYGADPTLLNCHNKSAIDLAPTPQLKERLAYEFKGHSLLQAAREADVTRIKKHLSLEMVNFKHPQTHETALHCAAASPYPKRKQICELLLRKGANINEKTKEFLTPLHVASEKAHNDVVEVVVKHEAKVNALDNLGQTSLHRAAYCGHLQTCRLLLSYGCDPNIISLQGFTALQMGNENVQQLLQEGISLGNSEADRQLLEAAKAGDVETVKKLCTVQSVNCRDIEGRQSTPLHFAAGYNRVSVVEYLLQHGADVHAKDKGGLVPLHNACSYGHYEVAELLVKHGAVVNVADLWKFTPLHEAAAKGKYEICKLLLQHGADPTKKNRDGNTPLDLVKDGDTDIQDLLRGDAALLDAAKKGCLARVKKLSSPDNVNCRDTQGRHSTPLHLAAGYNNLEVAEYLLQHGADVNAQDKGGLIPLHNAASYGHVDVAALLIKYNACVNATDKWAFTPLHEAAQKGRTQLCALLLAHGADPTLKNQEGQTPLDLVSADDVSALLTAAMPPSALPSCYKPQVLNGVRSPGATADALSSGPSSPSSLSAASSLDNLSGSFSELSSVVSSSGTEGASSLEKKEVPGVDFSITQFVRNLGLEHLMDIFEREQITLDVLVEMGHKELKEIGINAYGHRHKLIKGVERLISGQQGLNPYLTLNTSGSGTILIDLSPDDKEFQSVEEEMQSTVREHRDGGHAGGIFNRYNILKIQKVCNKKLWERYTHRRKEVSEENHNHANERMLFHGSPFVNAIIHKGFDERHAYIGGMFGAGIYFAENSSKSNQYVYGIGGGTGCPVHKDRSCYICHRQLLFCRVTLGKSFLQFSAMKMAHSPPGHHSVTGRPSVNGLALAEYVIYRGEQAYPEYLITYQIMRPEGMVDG
Procedure: Compounds of the present invention were tested in an in vitro assay based on SPA technology with Ni Flash plates (96 or 384 well). In principle, the assay relies upon SPA technology for the detection of auto-poly(ADP-ribosyl)ation of TANK-2 protein using [^3H]-nicotinamide adenine dinucleotide ([^3H]-NAD^+) as ADP-ribosyl donor.
A stock solution of 100 nM [3H]-NAD^+/NAD (0.1 mCi/ml, supplier: Perkin Elmer) and 0.25 μM NAD (Sigma) was made in assay buffer (60 mM Tris/HCl, pH 7.4; 0.9 mM DTT; 6 mM MgCl2). The TANK-2 enzyme was produced as described in EP1238063. 60 μl of assay buffer, together with 1 μl of compound in DMSO, 20 μl of [^3H]-NAD^+/NAD and 20 μl of TANK-2 enzyme (final concentration 8 μg/ml) was added per well into a 96-well Ni-coated flash plate (Perkin Elmer). After incubation of the mixture for 120 min. at room temperature, the reaction was terminated by adding 60 μl of stopsolution (42.6 mg NAD in 6 ml H2O). The plates were covered with a plate sealer and placed in a TopCountNXT™ (Packard) for scintillation counting. Values were expressed as counts per minute (cpm). For each experiment, controls (containing TANK-2 enzyme and DMSO without compound), a blank incubation (containing DMSO but no TANK-2 enzyme or compound) and samples (containing TANK-2 enzyme and compound dissolved in DMSO) were run in parallel. All compounds tested were dissolved and eventually further diluted in DMSO. In first instance, compounds were tested at a concentration of 10^−5M. […] In each test, the blank value was subtracted from both the control and the sample values. The control sample represented maximal TANK-2 enzyme activity. For each sample, the amount of cpm was expressed as a percentage of the mean cpm value of the controls. When appropriate, IC50-values (concentration of the drug, needed to reduce the TANK-2 enzyme activity to 50% of the control) were computed using linear interpolation between the experimental points just above and below the 50% level. Herein the effects of test compounds are expressed as pIC50 (the negative log value of the IC50-value). As reference compounds, 3-aminobenzamide and 4-amino-1,8-naphtalimide were included to validate the SPA assay. Herein the assay was described using 96-well plates. In the assay using 384-well plates the same final concentrations were used and volumes were adapted.

IC50 (PC-3 cells) | IC50 (HCT116 cells) | IC50 (Human PARP-1 enzyme) | PC3 antiproliferative activity pIC50 (PC-3 cells; PC3 cells) | HCT116 antiproliferative activity pIC50 (HCT116 cells; HCT116 cells) | IC50 (TANK-2 enzyme) | SMILES | minimal effective concentration (PC3 cells; Homo sapiens, PC-3, 1 h, read-out: EB1 pLAC (converted)) | EB1 pLAC (PC3 cells)
2510 nM | 2000 nM | 501 nM | – | – | – | Cc1cc2ccc([C@](C)(C#N)[C@H]3CCc4cc(Br)ccc43)cc2[nH]c1=O [Compound 239] | 1 µM | –
– | – | 316 nM | 5.2 | 5.4 | – | Cc1cc2ccc(C(C)(C#N)C3CCc4cc(Br)ccc43)cc2[nH]c1=O (stereo not shown) [Compound 243] | – | 6
– | – | 50.1 nM | – | – | 1000 nM | Cc1cc2ccc([C@@](C)(C#N)[C@H]3CCCc4ccccc43)cc2[nH]c1=O [Compound 384] | – | –
10000 nM | 5010 nM | 251 nM | – | – | – | Cc1cc2ccc([C@@](C)(C#N)[C@@H]3CCc4ccc(Br)cc43)cc2[nH]c1=O [Compound 408] | – | –
